Values quoted from earlier work in patent US9308173B2, “Slow-releasing ophthalmic compositions comprising povidone iodine” (JIANGSU DEDA PHARMACEUTICALS CO., LTD., priority 2011, dated 2016).
Where two headings read alike, the source gives them in different places.

Test system: infected eyes

Povidone iodine [PVP-I]
Toxicity and irritation to the eye (0.02% eye drop (Grimes et al. 1992)): without the toxic affection and irritation | Germicidal effect (0.02% eye drop, infected eyes treated repeatedly (Grimes et al. 1992)): same germicidal effects as one with concentration of 5.0% povidone iodine | Toxicity to the eye (0.04% eye drops, clinical disinfection of eyes): no noticeable toxicity | Toxicity to the eye (eye drops at high concentrations of 5%): toxic effects that cannot be ignored
